For this series, the system named is human TGF-beta1 mRNA. Description: Antisense inhibition of human TGF-beta1 mRNA in HuVEC cells, single 10 nM dose, Lipofectamine 2000 (Example 2). In kind it is cell-based. The settings on record: for % inhibition: 10 nM oligonucleotide, HuVEC, relative to untreated control cells; for inhibition of a TGF-beta1 mRNA: threshold lists of Oligo IDs, 10 nM. In a few lines: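 Percent inhibition relative to untreated controls, from qRT-PCR of mRNA corrected for total RNA (RIBOGREEN). Cells were exposed 4 h to 10 nM phosphorothioate 2-13-5 MOE gapmers with Lipofectamine 2000 at 5,000 cells/well. RNA was harvested after roughly 24 h recovery.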

[1] abbreviates: gapmers targeted to SEQ ID NO: 2.
Where [2] appears, read: gapmers targeted to SEQ ID NO: 1.

Values joined by “and” are separate entries in the source; they are usually repeats but may differ in a detail not shown here. Equal entries are not always repeated. In the oligonucleotide strings, read from the 5' end, every base follows the letter of its sugar. An asterisk marks phosphorothioate; unmarked linkages are phosphodiester. Other units and linkages are bracketed, terminal groups are in braces. A string of capitals states the bases alone. e = 2'-O-(2-methoxyethyl) (MOE); [5mC] = 5-methylcytosine; d = 2'-deoxy (DNA)

On to “414089 (antisense eA*eA*dT*dT*d[5mC]*dT*dA*dG*d[5mC]*dA*dT*dT*d[5mC]*dT*dA*eG*eA*eA*eT*e[5mC]) [compound 414089]”, for which, under setting [1], the “% inhibition” value was 18%.
As to “413978 (antisense e[5mC]*eT*d[5mC]*d[5mC]*d[5mC]*dA*dG*d[5mC]*dG*dG*d[5mC]*dA*dA*d[5mC]*dG*eG*eA*eA*eA*eA) [compound 413978]”, the “inhibition of a TGF-beta1 mRNA” value was 60% and 65%. Also, the “% inhibition” value under setting [2] is given as 67%.
“414025 (antisense eA*eG*dG*d[5mC]*dT*d[5mC]*dG*dG*dG*d[5mC]*dT*d[5mC]*d[5mC]*dG*dG*eT*eT*e[5mC]*eT*eG) [compound 414025]”: the “inhibition of a TGF-beta1 mRNA” value is 60% and 65% and 70% and 75%. The “% inhibition” value under setting [2] worked out at 79%.
On to “414066 (antisense eG*eT*dG*dG*dA*d[5mC]*d[5mC]*dT*dT*dG*dT*dA*dA*d[5mC]*d[5mC]*eA*eG*e[5mC]*e[5mC]*eG) [compound 414066]”, for which the “inhibition of a TGF-beta1 mRNA” value was 60% and 65% and 70% and 75% and 80%. Moreover, the “% inhibition” value under setting [1] is 80%.
Take “414004 (antisense eA*eG*dA*dA*dG*dG*dT*dG*dG*dG*dT*dG*dG*dT*d[5mC]*eT*eT*eG*eA*eA) [compound 414004]”: the “inhibition of a TGF-beta1 mRNA” value was 60% and 65% and 70%. Further, under setting [2], the “% inhibition” value was 70%.
As to “414085 (antisense e[5mC]*eT*dA*dA*dA*dG*dG*dA*dG*dA*d[5mC]*dA*dG*dA*dT*eG*e[5mC]*eT*e[5mC]*eA) [compound 414085]”, the “inhibition of a TGF-beta1 mRNA” value is 60% and 65%. Under setting [1], the “% inhibition” value is given as 66%.
Regarding “414017 (antisense eA*eT*dA*dA*d[5mC]*d[5mC]*dT*dA*dG*dA*dT*dG*dG*dG*d[5mC]*eG*e[5mC]*eG*eA*eT) [compound 414017]”, the “inhibition of a TGF-beta1 mRNA” value was 60% and 65% and 70% and 75%. Besides, the “% inhibition” value under setting [2] stood at 77%.
On to “414106 (antisense eA*eT*dT*d[5mC]*d[5mC]*dT*dT*dG*dA*dT*dA*dT*d[5mC]*dT*dA*eG*eA*eG*eG*eA) [compound 414106]”, for which the “inhibition of a TGF-beta1 mRNA” value was 60% and 65% and 70%. For the same substance, the “% inhibition” value under setting [1] is 74%.
In the case of “414119 (antisense eT*eG*dT*dG*d[5mC]*dA*dA*d[5mC]*dA*dA*dA*dT*dG*dT*dT*eT*eA*eT*eT*eG) [compound 414119]”, the “% inhibition” value under setting [1] is reported as 43%.
As to “414034 (antisense e[5mC]*e[5mC]*dT*dT*dA*dA*dA*dT*dA*d[5mC]*dA*dG*d[5mC]*d[5mC]*d[5mC]*e[5mC]*e[5mC]*eA*eT*eG) [compound 414034]”, the “inhibition of a TGF-beta1 mRNA” value is 60% and 65%. Under setting [2], the “% inhibition” value was determined as 68%.
For “414076 (antisense eG*eT*dT*d[5mC]*d[5mC]*d[5mC]*d[5mC]*dA*dG*d[5mC]*dT*dA*d[5mC]*d[5mC]*dT*eA*eG*e[5mC]*e[5mC]*eA) [compound 414076]”, under setting [1], the “% inhibition” value was 57%.
With “414001 (antisense e[5mC]*eA*dG*dG*dT*d[5mC]*dG*dG*dA*dG*dA*dG*dA*dG*dA*eT*e[5mC]*e[5mC]*eG*eT) [compound 414001]”, the “inhibition of a TGF-beta1 mRNA” value was 60% and 65% and 70% and 75%. Also, the “% inhibition” value under setting [2] was determined as 78%.
Take “414071 (antisense eT*eA*dG*dA*dA*dG*dT*d[5mC]*dA*dT*dT*dT*d[5mC]*dT*dA*eA*eT*eG*eA*eT) [compound 414071]”: the “% inhibition” value under setting [1] is given as 0%.
Turning to “414046 (antisense eG*eT*dG*dA*dA*dA*d[5mC]*dA*d[5mC]*d[5mC]*dG*dA*dG*dG*dA*e[5mC]*eA*e[5mC]*e[5mC]*eT) [compound 414046]”, the “inhibition of a TGF-beta1 mRNA” value was 60% and 65%. The “% inhibition” value under setting [1] stood at 67%.
As for “414018 (antisense eA*eA*dA*dT*dA*dA*d[5mC]*d[5mC]*dT*dA*dG*dA*dT*dG*dG*eG*e[5mC]*eG*e[5mC]*eG) [compound 414018]”, the “inhibition of a TGF-beta1 mRNA” value was 60% and 65% and 70% and 75% and 80%. Under setting [2], the “% inhibition” value is 82%.
For the substance “414021 (antisense eT*eG*dT*dA*d[5mC]*dA*dG*dG*dG*d[5mC]*dG*dA*dG*d[5mC]*dA*e[5mC]*eG*eG*e[5mC]*e[5mC]) [compound 414021]”, the “inhibition of a TGF-beta1 mRNA” value was 60% and 65% and 70%. In addition, the “% inhibition” value under setting [1] amounted to 74%.
“414107 (antisense eT*eT*d[5mC]*dA*dA*dA*dT*dG*dT*dA*dT*d[5mC]*dT*d[5mC]*dT*eA*eA*eT*eT*eA) [compound 414107]”: the “% inhibition” value under setting [1] amounted to 7%.
As for “413998 (antisense eG*eG*dA*dA*dA*dA*dG*dT*d[5mC]*dT*dT*dT*dG*d[5mC]*dG*eG*eG*eA*eG*eG) [compound 413998]”, the “% inhibition” value under setting [2] came out at 13%.
With “414105 (antisense eG*eA*dT*dA*dT*d[5mC]*dT*dA*dG*dA*dG*dG*dA*dA*dT*eA*eT*e[5mC]*eT*eA) [compound 414105]”, the “% inhibition” value under setting [1] was 27%.
In the case of “414038 (antisense eA*e[5mC]*dG*dG*dG*dT*dG*dT*d[5mC]*d[5mC]*dT*dT*dA*dA*dA*eT*eA*e[5mC]*eA*eG) [compound 414038]”, the “inhibition of a TGF-beta1 mRNA” value is 60% and 65% and 70% and 75% and 80% and 85%. Besides, under setting [2], the “% inhibition” value came to 85%.
As for “414112 (antisense eG*eG*d[5mC]*dA*dG*d[5mC]*dA*dT*d[5mC]*dA*d[5mC]*d[5mC]*dT*dG*dG*eG*eA*eA*e[5mC]*eT) [compound 414112]”, under setting [1], the “% inhibition” value is given as 57%.
On to “414043 (antisense e[5mC]*e[5mC]*dT*dT*dG*dA*dT*dG*d[5mC]*d[5mC]*dG*dG*dG*d[5mC]*dA*eA*eA*eG*eG*eA) [compound 414043]”, for which the “inhibition of a TGF-beta1 mRNA” value was found to be 60%. For the same substance, under setting [2], the “% inhibition” value is 64%.
Turning to “414099 (antisense eG*eT*dA*dG*dG*d[5mC]*dT*dA*dT*dT*dA*dA*dT*dA*dG*eT*eT*eA*eA*eG) [compound 414099]”, the “% inhibition” value under setting [1] came to 37%.
The same measure, in the same setting: for “414095 (antisense eA*eA*dT*dT*d[5mC]*d[5mC]*dA*dG*dT*dA*dT*dG*d[5mC]*d[5mC]*dA*eG*eT*eA*eT*eT) [compound 414095]” the value was 46%; for “414065 (antisense eA*eA*dA*dT*dG*dA*dA*dG*dG*dG*dA*dG*dG*d[5mC]*dG*eA*eT*e[5mC]*eA*eG) [compound 414065]”, 24%.
“414073 (antisense e[5mC]*eT*dT*d[5mC]*d[5mC]*d[5mC]*d[5mC]*dA*dA*dA*d[5mC]*dA*dG*dG*d[5mC]*eT*eT*e[5mC]*e[5mC]*eA) [compound 414073]”: the “inhibition of a TGF-beta1 mRNA” value is 60% and 65%. The “% inhibition” value under setting [1] is given as 65%.
Take “413980 (antisense e[5mC]*e[5mC]*dG*dG*d[5mC]*dT*d[5mC]*d[5mC]*d[5mC]*dA*dG*d[5mC]*dG*dG*d[5mC]*eA*eA*e[5mC]*eG*eG) [compound 413980]”: the “inhibition of a TGF-beta1 mRNA” value is 60% and 65% and 70%. The “% inhibition” value under setting [2] was 74%.
As to “414094 (antisense eT*e[5mC]*dA*dA*dG*dA*dG*dG*dT*dT*d[5mC]*dA*dA*dA*d[5mC]*eT*eG*eA*e[5mC]*eA) [compound 414094]”, the “inhibition of a TGF-beta1 mRNA” value was 60% and 65%. Besides, the “% inhibition” value under setting [1] is 67%.
In the case of “414074 (antisense eA*eA*dG*dT*dG*dA*d[5mC]*d[5mC]*d[5mC]*d[5mC]*dA*dG*dG*dA*d[5mC]*eA*eA*eA*e[5mC]*eA) [compound 414074]”, under setting [1], the “% inhibition” value is 24%.

These data come from patent publication US20110172296A1, “MODULATION OF TRANSFORMING GROWTH FACTOR-BETA 1 EXPRESSION” (priority 2010, published 2011).
